Reference: patent US5468756A, “Imidazonaphthyridine derivatives” (Kyowa Hakko Kogyo Co., Ltd., priority 1990, dated 1995)
Counter-ions that a name gives are not always drawn.

Assays:
[1] = system: ddY strain male mice; assay: Acute toxicity (Minimum Lethal Dose); type: in vivo
Protocol: The test compound was orally and intraperitoneally administered to ddY strain male mice weighing 20 to 25 g. MLD (Minimum Lethal Dose) was determined by observing the mortality for […] after the administration.

[2] = system: passive Schultz-Dale reaction; assay: Effect on passive Schultz-Dale reaction (broncho-dilative activity), sensitized tracheal strips contracted by antigen; parameters: species or system male Hartley guinea pigs; conditions: guinea pig tracheal zig-zag strips, 37° C., antigen egg white albumin 1 μg/ml; read-out: Passive Schultz-Dale reaction IC50 (concentration of 50% relaxation rate)
Protocol: d) Effect on passive Schultz-Dale reaction (broncho-dilative activity)
Male Hartley guinea pigs weighing 350 to 500 g were passively sensitized by intraperitoneal injection of rabbit anti-OA serum prepared in advance by the method of Koda et al. [Folia Pharmacol., Japon 66, 237, (1970)]. After 24 hours, the guinea pigs were stunned and exsanguinated, and then tracheae were removed. The zig-zag strips of the tracheae were prepared by the method of Emmerson and Mackay [J. Pharm. Pharmacol., 31, 798, (1979)]. The strips were suspended in Krebs-Henseleit solution at 37° C. under aeration of a mixed gas of 95% oxygen and 5% carbon dioxide, and equilibrated for one hour. Then, antigen (egg white albumin) was introduced in the solution (final concentration; 1 μg/ml), and the contraction was measured by isotonictransducer (TD-112s, made by Nihon Kohden K.K., Japan) and recorded on a recorder (Type 3066, made by Yokogawa-Hokushin Denki, K.K. Japan). After the contraction curves reached a plateau, the test compounds were successively added in order to get cumulative concentration-relaxation curves. The concentration of 50% relaxation rate (IC50) was calculated from the regression line, which was obtained from the cumulative concentration-relaxation curves.

[3] = system: platelet activating factor (PAF)-induced mortality; assay: Inhibition effect on platelet activating factor (PAF)-induced mortality; type: in vivo, male dd mice; conditions: Mus musculus, po, PAF 40 μg/kg i.v., 3 h, n = 10, control group survival 0-20%, read-out: Survival rate of test compound-administered group
Protocol: e) Inhibition effect on platelet activating factor (PAF)-induced mortality
The experiment was carried out by a minor modification of a known method [Br. J. Pharmacol., 79, 595 (1983)]. Groups each consisting of 10 male dd mice (weighing 28 to 32 g) were used, and 50 or 100 mg/kg of the test compound or a saline (control) was orally administered. One hour after the administration of test compound, 40 μg/kg of PAF (manufactured by Avanti Polar Lipids Co., Ltd.) was intravenously administered. Three hours after PAF injection, the mortality of the animals was observed.

[4] = system: carrageenin-induced paw edema; assay: Effect on carrageenin-induced paw edema; type: in vivo, male Wistar rats; conditions: Rattus norvegicus; p.o., 3 hours after carrageenin; read-out: Suppression rate for paw swelling, carrageenin-induced edema
Protocol: a) Effect on carrageenin-induced paw edema
Male Wistar rats weighing 150 to 160 g (n=3-5) were used in the experiment. After the right hind paw volume was measured with the plethysmograph (TK-101; Unicom Co., Ltd.), the test compound (25, 50 or 100 mg/kg) was orally administered. After one hour, 0.1 ml of 1% carrageenin (λ-carrageenin; PICNIN-A®, Zushi Kagaku Co., Ltd.) was subcutaneously injected into the right hind paw footpad. Three hours after the injection of carrageenin, the right hind paw volume was measured and the swelling rate was determined by the following equation 1. [formula] Vt: the right hind paw volume measured 3 hours after the injection of carrageenin
Vo: the right hind paw volume measured prior to the injection of carrageenin
The suppression rate was calculated by the following equation 2. [formula] Swt: the swelling rate of the group administered with the test compound Swc: the swelling rate of the control group administered with physiological saline solution

| SMILES | MLD (Minimum Lethal Dose) i.p. [1] [mg/kg] | MLD (Minimum Lethal Dose) p.o. [1] [mg/kg] | IC50 [2] [µM] | responders at 100 mg/kg [3] [%] | inhibition in vivo at 100 mg/kg [4] [%] |
| --- | --- | --- | --- | --- | --- |
| Cn1cnc2c(=O)n(-c3ccccc3)c3ncccc3c21 [Compound 2, 1-Methyl-5-phenyl-1H-imidazo[4,5-c][1,8]naphthyridin-4(5H)-one] | > 100 | > 300 | – | – | – |
| O=c1c2[nH]cnc2c2cccnc2n1-c1ccccc1 [Compound 3, 5-Phenyl-3H-imidazo[4,5-c][1,8]naphthyridin-4(5H)-one] | > 100 | > 300 | 0.77 | 70 | – |
| Cn1cnc2c3cccnc3n(-c3ccccc3)c(=O)c21 [Compound 4, 3-Methyl-5-phenyl-3H-imidazo[4,5-c][1,8]naphthyridin-4(5H)-one] | > 50 | > 50 | 0.24 | – | – |
| CCn1cnc2c(=O)n(-c3ccccc3)c3ncccc3c21 [Compound 5, 1-Ethyl-5-phenyl-1H-imidazo[4,5-c][1,8]naphthyridin-4(5H)-one] | – | – | > 10 | 80 | 20.6 |
| CC(C)n1cnc2c(=O)n(-c3ccccc3)c3ncccc3c21 [Compound 6, 1-Isopropyl-5-phenyl-1H-imidazo[4,5-c][1,8]naphthyridin-4(5H)-one] | – | – | > 10 | 70 | 22 |
| O=c1c2ncn(Cc3ccccc3)c2c2cccnc2n1-c1ccccc1 [Compound 7, 1-Benzyl-5-phenyl-1H-imidazo[4,5-c][1,8]naphthyridin-4(5H)-one] | – | – | > 10 | 90 | – |
| O=c1c2[nH]c(-c3ccccc3)nc2c2cccnc2n1-c1ccccc1 [Compound 19, 2,5-Diphenyl-3H-imidazo[4,5-c][1,8]naphthyridin-4(5H)-one] | – | – | > 10 | 60 | 1.7 |
| O=c1c2[nH]c(S)nc2c2cccnc2n1-c1ccccc1 [Compound 20, 2-Mercapto-5-phenyl-3H-imidazo[4,5-c][1,8]naphthyridin-4(5H)-one] | – | – | > 10 | 30 | 6.8 |
| CCOC(=O)Cn1cnc2c3cccnc3n(-c3ccccc3)c(=O)c21 [Compound 32, 3-Ethoxycarbonylmethyl-5-phenyl-3H-imidazo[4,5-c][1,8]naphthyridin-4(5H)-one] | > 100 | > 300 | 0.68 | 0 | – |
| CCCC(CCC)n1cnc2c3cccnc3n(-c3ccccc3)c(=O)c21 [Compound 35, 3-(1-Propylbutyl)-5-phenyl-3H-imidazo[4,5-c][1,8]naphthyridin-4(5H)-one] | > 100 | > 300 | – | 70 | – |
| O=c1c2c(ncn2CC=Cc2ccccc2)c2cccnc2n1-c1ccccc1 [Compound 36, 3-Cinnamyl-5-phenyl-3H-imidazo[4,5-c][1,8]naphthyridin-4(5H)-one] | > 100 | > 300 | – | 20 | – |
| O=c1c2c(ncn2C(c2ccccc2)c2ccccc2)c2cccnc2n1-c1ccccc1 [Compound 38, 3-(3-Diphenylmethyl)-5-phenyl-3H-imidazo-[4,5-c][1,8]naphthyridin-4(5H)-one] | – | – | – | 30 | – |
| Cc1ccc(C)c(Cn2cnc3c4cccnc4n(-c4ccccc4)c(=O)c32)c1 [Compound 39, 3-(2,5-Dimethylphenyl)methyl-5-phenyl-3H-imidazo[4,5-c][1,8]naphthyridin-4(5H)-one] | – | – | – | 0 | – |
| O=c1c2c(ncn2Cc2ccccc2Cl)c2cccnc2n1-c1ccccc1 [Compound 48, 3-(2-Chlorophenyl)methyl-5-phenyl-3H-imidazo[4,5-c][1,8]naphthyridin-4(5H)-one] | – | – | 4.9 | 10 | – |
| O=c1c2c(ncn2Cc2cccc(Br)c2)c2cccnc2n1-c1ccccc1 [Compound 49, 3-(3-Bromophenyl)methyl-5-phenyl-3H-imidazo[4,5-c][1,8]naphthyridin-4(5H)-one] | – | – | – | 0 | – |
| COC(=O)c1ccc(Cn2cnc3c4cccnc4n(-c4ccccc4)c(=O)c32)cc1 [Compound 50, 3-(4-Methoxycarbonylphenyl)methyl-5-phenyl-3H-imidazo[4,5-c][1,8]naphthyridin-4(5H)-one] | – | – | – | 0 | – |
| O=c1c2c(ncn2CCCO)c2cccnc2n1-c1ccccc1 [Compound 51, 3-(3-Hydroxypropyl)-5-phenyl-3H-imidazo[4,5-c][1,8]naphthyridin-4(5H)-one] | – | – | – | 80 | – |
| CC(O)Cn1cnc2c3cccnc3n(-c3ccccc3)c(=O)c21 (centres unmarked) [Compound 52, 3-(2-Hydroxypropyl)-5-phenyl-3H-imidazo[4,5-c][1,8]naphthyridin-4(5H)-one] | – | – | – | 100 | – |
| O=c1c2c(ncn2Cc2ccco2)c2cccnc2n1-c1ccccc1 [Compound 53, 3-Furfuryl-5-phenyl-3H-imidazo[4,5-c][1,8]naphthyridin-4(5H)-one] | – | – | – | 90 | – |
| O=c1c2c(ncn2Cc2cccnc2)c2cccnc2n1-c1ccccc1 [Compound 54, 5-Phenyl-3-(3-pyridyl)methyl-3H-imidazo[4,5-c][1,8]naphthyridin-4(5H)-one] | – | – | – | 90 | – |
| COc1ccc(-n2c(=O)c3c(ncn3Cc3ccccc3)c3cccnc32)cc1 [Compound 55, 5-(4-Methoxyphenyl)-3-benzyl-3H-imidazo[4,5-c][1,8]naphthyridin-4(5H)-one] | – | – | – | 0 | – |
| COc1cccc(-n2c(=O)c3c(ncn3Cc3ccccc3)c3cccnc32)c1 [Compound 56, 5-(3-Methoxyphenyl)-3-benzyl-3H-imidazo[4,5-c][1,8]naphthyridin-4(5H)-one] | – | – | – | 40 | – |
| Cc1ccc(-n2c(=O)c3c(ncn3Cc3ccccc3)c3cccnc32)cc1 [Compound 57, 5-(4-Methylphenyl)-3-benzyl-3H-imidazo[4,5-c][1,8]naphthyridin-4(5H)-one] | – | – | – | 0 | – |
| Cc1nc2c3cccnc3n(-c3ccccc3)c(=O)c2n1Cc1ccccc1 [Compound 60, 2-Methyl-5-phenyl-3-benzyl-3H-imidazo[4,5-c][1,8]-naphthyridin-4(5H)-one] | – | – | – | 20 | – |
| O=c1c2c(nc(-c3ccccc3)n2Cc2ccccc2)c2cccnc2n1-c1ccccc1 [Compound 61, 2,5-Diphenyl-3-benzyl-3H-imidazo[4,5-c][1,8]naphthyridin-4(5H)-one] | – | – | – | 10 | – |
| COc1ccc(-n2c(=O)c3c(ncn3CC(C)C)c3cccnc32)cc1 [Compound 62, 3-Isobutyl-5-(4-methoxyphenyl)-3H-imidazo[4,5-c][1,8]naphthyridin-4(5H)-one] | – | – | – | 90 | – |
| Cc1ccc(-n2c(=O)c3c(ncn3CC(C)C)c3cccnc32)cc1 [Compound 64, 3-Isobutyl-5-(4-methylphenyl)-3H-imidazo[4,5-c][1,8]naphthyridin-4(5H)-one] | – | – | – | 60 | – |
| O=c1c2c(ncn2CCCN2CCOCC2)c2cccnc2n1-c1ccccc1 [Compound 66 Sa, 3-(3-Morpholino)propyl-5-phenyl-3H-imidazo[4,5-c][1,8]naphthyridin-4(5H)-one hydrochloride] | > 100 | > 300 | – | 70 | – |
| CCN(CC)CCCn1cnc2c3cccnc3n(-c3ccccc3)c(=O)c21 [Compound 67 Sa, 3-(3-Diethylamino)propyl-5-phenyl-3H-imidazo[4,5-c][1,8]naphthyridin-4(5H)-one hydrochloride] | > 100 | > 300 | – | 30 | – |
